Reference: ChEMBL document CHEMBL3596111, “Synthesis and evaluation of the anti-nociceptive and anti-inflammatory activity of 4-aminoquinoline derivatives” (Bioorg Med Chem, 2015)
Active and inactive are the calls of the source. No cut-off for these calls is given here.

Key:
Rattus norvegicus [1] = test: Renal toxicity in Wistar rat model complete Freund's adjuvant-induced arthritis assessed as effect on creatinine levels at 100 umol/kg, ip dosed from day 14 to day 21 after immunization; format: organism-based; details: in vivo
Mus musculus [2] = test: Anti-nociceptive activity in Swiss mouse assessed as reduction in time spent in licking injected paw during inflammatory phase at 100 umol/kg, ip dosed 40 mins before formalin injection; format: functional, organism-based
Rattus norvegicus [3] = test: Anti-inflammatory activity in Wistar rat model complete Freund's adjuvant-induced arthritis assessed as reduction in paw edema at 100 umol/kg, ip dosed from day 14 to day 21 after immunization and measured on day 17; format: functional, organism-based
Mus musculus [4] = test: Anti-nociceptive activity in ip dosed Swiss mouse assessed as inhibition of acetic acid-induced writhing dosed 40 mins before acetic acid injection and measured over 25 mins relative to control; format: functional
Mus musculus [5] = test: Anti-nociceptive activity in Swiss mouse assessed as reduction in time spent in licking injected paw during neurogenic phase at 100 umol/kg, ip dosed 40 mins before formalin injection; format: functional, organism-based
Rattus norvegicus [6] = test: Anti-inflammatory activity in Wistar rat model complete Freund's adjuvant-induced arthritis assessed as reduction in paw edema at 100 umol/kg, ip dosed from day 14 to day 21 after immunization and measured on until day of sacrifice; format: functional, organism-based
Rattus norvegicus [7] = test: Renal toxicity in Wistar rat model complete Freund's adjuvant-induced arthritis assessed as effect on urea levels at 100 umol/kg, ip dosed from day 14 to day 21 after immunization; format: organism-based; details: in vivo
Mus musculus [8] = test: Anti-inflammatory activity in Swiss mouse assessed as inhibition of zymosan-induced peritonitis by measuring reduction in leukocyte migration at 100 umol/kg, ip administered 30 min before the zymosan injection; format: functional
Rattus norvegicus [9] = test: Toxicity in Wistar rat model complete Freund's adjuvant-induced arthritis assessed as effect on spleen weight at 100 umol/kg, ip dosed from day 14 to day 21 after immunization; format: organism-based; details: in vivo
Rattus norvegicus [10] = test: Hepatotoxicity in Wistar rat model complete Freund's adjuvant-induced arthritis assessed as effect on serum ALT level at 100 umol/kg, ip dosed from day 14 to day 21 after immunization; format: toxicity, organism-based; details: in vivo
Rattus norvegicus [11] = test: Hepatotoxicity in Wistar rat model complete Freund's adjuvant-induced arthritis assessed as effect on serum AST level at 100 umol/kg, ip dosed from day 14 to day 21 after immunization; format: toxicity, organism-based; details: in vivo
Mus musculus [12] = test: Anti-nociceptive activity in Swiss mouse assessed as reduction in paw licking response during inflammatory phase at 100 umol/kg, ip dosed 40 mins before formalin injection; format: functional
Mus musculus [13] = test: Anti-nociceptive activity in ip dosed Swiss mouse assessed as inhibition of acetic acid-induced writhing dosed 40 mins before acetic acid injection and measured over 25 mins; format: functional; details: read-out: ID50 (the source's name)
Mus musculus [14] = test: Anti-nociceptive activity in Swiss mouse assessed as reduction in paw licking response during inflammatory phase at 10 umol/kg, ip dosed 40 mins before formalin injection; format: functional
Mus musculus [15] = test: Anti-inflammatory activity in Swiss mouse assessed as inhibition of zymosan-induced peritonitis by measuring reduction in leukocyte migration at 10 umol/kg, ip administered 30 min before the zymosan injection; format: functional
Rattus norvegicus [16] = test: Anti-inflammatory activity in Wistar rat model complete Freund's adjuvant-induced arthritis assessed as reduction in paw edema at 5 umol/kg, ip dosed from day 14 to day 21 after immunization and measured on day 16; format: functional, organism-based

## NCCNCCNc1ccnc2cc(C(F)(F)F)ccc12
Rattus norvegicus [1]
  Activity: Non-toxic
Mus musculus [2]
  Activity: Active
Rattus norvegicus [3]
  Activity: Active
Mus musculus [4]
  Emax: 96.7%
Mus musculus [5]
  Activity: Active
Rattus norvegicus [6]
  Activity: Active
Rattus norvegicus [7]
  Activity: Non-toxic
Mus musculus [8]
  inhibition in vivo at 100 µmol/kg: 59.1%
Rattus norvegicus [9]
  Activity: Non-toxic
Rattus norvegicus [10]
  Activity: Non-toxic
Rattus norvegicus [11]
  Activity: Non-toxic
Mus musculus [12]
  inhibition in vivo at 100 µmol/kg: 89.6%
Mus musculus [13]
  ED50: 15.3 µmol/kg

## Cc1c(N(C)CS(=O)(=O)O)c(=O)n(-c2ccccc2)n1C [METAMIZOLE]
Mus musculus [4]
  Emax: 74.8%
Mus musculus [13]
  ED50: 36.8 µmol/kg

## COc1ccc2c(c1)c(CC(=O)O)c(C)n2C(=O)c1ccc(Cl)cc1 [INDOMETHACIN]
Mus musculus [14]
  inhibition in vivo at 10 µmol/kg: 50.8%
Mus musculus [15]
  inhibition in vivo at 10 µmol/kg: 75.8%

## NCCNCCNc1ccnc2cc(Cl)ccc12
Mus musculus [2]
  Activity: Active
Mus musculus [4]
  Emax: 86.4%
Mus musculus [5]
  Activity: Active
Mus musculus [13]
  ED50: 39.4 µmol/kg

## C[C@@H]1C[C@H]2[C@@H]3CCC4=CC(=O)C=C[C@]4(C)[C@@]3(F)[C@@H](O)C[C@]2(C)[C@@]1(O)C(=O)CO
Rattus norvegicus [16]
  Activity: Active

## NCCNCCNc1cc(C(F)(F)F)nc2ccccc12
Mus musculus [2]
  Activity: Active
Mus musculus [4]
  Emax: 95.1%
Mus musculus [5]
  Activity: Active
Mus musculus [13]
  ED50: 26.6 µmol/kg
